The values below come from US20230321117A1, “USE OF […] TREATING AN EPILEPSY DISORDER” (MARINUS PHARMACEUTICALS, INC., priority 2020, published 2023).

Holding throughout (assay type): in vivo, human
In series [1] the test system is major motor seizures in patients with CDKL5 deficiency disorder (CDD). Put plainly: Percent change in major motor seizure frequency vs plasma ganaxolone level, phase 3 CDD trial. The following applies: back-transformation of log values; CDD participants. The source says: (§1) Global, randomized, double-blind, placebo-controlled phase 3 clinical trial to assess the safety and efficacy of adjunctive ganaxolone for the treatment of seizures associated with CDD. Patients aged 2 to 21 years with a pathogenic or likely pathogenic mutation of the CDKL5 gene, neurodevelopmental impairment, and seizures refractory to treatment with at least 2 prior antiseizure medications who experienced at least 16 seizures per 28 days during the 2 months prior to screening were eligible to enroll. Study consisted of a 6-week baseline followed by a 17-week double-blind phase (ganaxolone or placebo, 1:1). The dose of ganaxolone 50 mg/mL suspension was titrated over 4 weeks to 63 mg/kg/day (21 mg/kg TID), not to exceed 1800 mg/d (600 mg TID), or to the maximum tolerated dose. Blood draws for PK analysis were scheduled to occur at visit 3 (week 5), visit 4 (week 9), and visit 5 (week 17).
Mean ganaxolone concentration was calculated for each subject using available results from up to three laboratory determinations during the double-blind phase. Linear regression was conducted using arithmetic- and natural logarithm-transformed percent reduction in major motor seizures (loge [percent reduction+100]) as dependent variable and natural logarithm-transformed mean ganaxolone concentration as the single explanatory variable. […]

A short description of series [2]: Plasma ganaxolone concentration in phase 3 CDD trial (PK/PD analysis).
Text: as §1
Mean ganaxolone concentration was calculated for each subject using available results from up to three laboratory determinations during the double-blind phase. Linear regression was conducted using arithmetic- and natural logarithm-transformed percent reduction in major motor seizures (loge [percent reduction+100]) as dependent variable and natural logarithm-transformed mean ganaxolone concentration as the single explanatory variable. Regression diagnostics included examination of residual and normal probability plots and determination of outliers and influential values. Cases with standardized residuals >2 or <−2 were excluded from the model and the regression was repeated.
The resulting sample was utilized in determination of a Pearson correlation coefficient (using log-transformed values). Additionally, percent seizure reduction was compared in three tertiles representing low (N=13), medium (N=13) and high (N=12) mean per subject ganaxolone concentrations using a Kruskal-Wallis test.

The subject of series [3] is partial-onset (focal) seizures. Put plainly: Phase 2 study in adults with uncontrolled partial-onset (focal) seizures. The method, then: A Phase 2 study was conducted. It enrolled 147 participants 18-69 years of age with a diagnosis of epilepsy with uncontrolled partial-onset (focal) seizures with or without secondary generalization despite being treated with up to 3 AEDs. Participants were randomized to adjunctive placebo (N=49) or GNX liquid suspension (N=98) titrated to a target dose of at 500 mg TID (1500 mg/day) in addition to their baseline AEDs, after which they entered an eight-week prospective baseline period followed by a 10-week double-blind phase. The primary endpoint was the reduction in weekly frequency of focal motor, focal impaired awareness and focal to bilateral tonic-clonic seizures from baseline to the double-blind phase. The prespecified primary analysis was the reduction in mean weekly seizure frequency, with log-transformed rates analyzed using analysis of covariance (ANCOVA). The protocol defined the population for analysis (“Primary Population”) as participants with 10 or fewer seizures/week during the baseline period.

In series [4] the test system is partial-onset (focal) seizures. Put plainly: Phase 3 trial in adults with focal seizures. On the procedure: Based on the results of the phase 2 study, a double-blind, placebo-controlled phase 3 trial in adults with focal seizures was conducted. The study enrolled two cohorts: Cohort 1 was an initial assessment of safety and tolerability of GNX 1200 or 1800 mg/day compared to placebo. Cohort 2, on which the primary efficacy analysis was based, enrolled 359 participants with a diagnosis of epilepsy with uncontrolled partial-onset (focal) seizures with or without secondary generalization who had failed at least two prior AEDs and had been on a stable regimen of one to three AEDs for at least one month. Following an eight-week prospective baseline period during which there were at least three seizures/28 days, participants were randomized to GNX 1800 mg/d (N=179) or placebo (N=180). The primary endpoint was the percent change in 28-day frequency of focal motor, focal impaired awareness and focal to bilateral tonic-clonic seizures from baseline to the double-blind phase. The primary efficacy analysis was a rank ANCOVA based on the modified intent-to-treat (mITT) population, defined as randomized participants who had taken at least one dose of study drug and provided post-baseline seizure data.

Series [5] deals with seizure occurrence in presurgical epilepsy participants. The experiment in a line: Double-blind placebo-controlled study during AED discontinuation with inpatient continuous EEG monitoring. Particulars: 500 mg TID or 625 mg TID, up to 8 days; log-rank p=0.08. The method, then: A double-blind, placebo-controlled study that enrolled 52 participants 18-65 years of age undergoing AED discontinuation during inpatient continuous EEG monitoring as part of an evaluation for surgical treatment of epilepsy was performed. Participants were randomized and administered: (i) ganaxolone 500 mg TID, (ii) 625 mg TID, or (iii) matching placebo and treated for up to 8 days. The primary endpoint was difference in the duration of treatment before meeting withdrawal criteria based on seizure occurrence.

For `CC(=O)[C@H]1CC[C@H]2[C@@H]3CC[C@H]4C[C@](C)(O)CC[C@]4(C)[C@H]3CC[C@]12C` [ganaxolone], in series [1], the “seizure reduction predicted at plasma concentration of approximately 100 ng/mL” value is “approximately 40%”. For the same compound, the “Mean GNX level” value in series [2] (High GNX level tertile (n = 12)) amounted to 172.6 ng/mL; in series [2] (Low GNX level tertile (n = 13)), 40.2 ng/mL; in series [2] (Medium GNX level tertile (n = 13)), 72.3 ng/mL. Further, the “median percent reduction in seizure frequency” value in series [3] (ITT population, 1500 mg/day TID, p=0.014 vs placebo) came to 25.9%. The “net reduction in weekly seizure frequency compared to placebo” value came to 11.4% in series [3] (ITT population, p=0.049) and 11.8% in series [3] (Primary Population (10 or fewer seizures/week at baseline), p=0.042). The “Median % reduction GNX” value in series [3] (Phase 2, 1500 mg/d, TID, N 98) worked out at 25.9%; in series [4] (Phase 3, 1800 mg/d, BID, N 179), 21.3%. Also, the “weekly seizure frequency during the double-blind phase” value in series [3] (Primary Population, 500 mg TID liquid suspension, adjunctive, baseline 3.13) was 2.70. Besides, the “percent reduction in seizure frequency from baseline period to double-blind phase” value in series [4] (mITT, Cohort 2, 1800 mg/d, 28-day frequency, p=0.179 vs placebo) was 21.3%. Besides, in series [4] (oral 1800 mg daily (900 mg twice a day), adults with focal seizures), the clinical endpoint outcome was “clinical endpoint was not achieved”. Moreover, in series [5], the “duration of treatment before meeting withdrawal criteria based on seizure occurrence, relative to placebo” value is listed as “longer duration of treatment prior to study withdrawal”.
